Read-outs that look alike come from different tables or passages of the source.
Tests used:
[1] = In vivo human metabolism, plasma and urine pharmacokinetics after single oral dose of racemic Compound (I); details: human
Description: Plasma samples were collected prior to dosing (within 30 minutes before dosing) and at the following timepoints: 0.5, 1, 1.5, 2, 3, 4, 5, 6, 8, 10, 12, and 24 hours postdose. Urine was also collected. […] The supernatant was diluted with injection solvent and analyzed by HPLC with tandem mass spectrometry (LC/MS/MS). […] The calibration curves were linear over the concentration range between 5.00 ng/mL and 2000 ng/mL with a lower limit of quantification (LLOQ) of 5.00 ng/mL.
Using the above data, the following plasma pharmacokinetic parameters were calculated using validated Phoenix WinNonlin, version 6.3 (Pharsight Corporation, Mountain View, Calif.) and are shown (geometric mean 95% CI) in tables 11, 12, and 13 below.
• Cmax: Maximum observed concentration (μg/mL) • Tmax: Time of occurrence of maximum observed concentration (hr) • AUC0-24: Area under plasma concentration-vs-time curve, from time 0 to 24 hours postdose (μg·hr/mL) • C24: Concentration 24 hours post dose (μg/mL) • t1/2: Apparent terminal half-life (hr)

recombinant human CYP2C9 = recombinant human CYP2C9 (Homo sapiens, UniProt P11712); assay: Metabolite formation with recombinant human CYP2C9; format: in vitro ADME
Description: (§1) The formation of M3, M3c, M4 and M6 from each atropisomer in liver microsomal and recombinant CYP incubations was determined, based on the peak area ratio of analyte over internal standard (IS)

[2] = In vitro metabolism, human liver microsomes in the presence of mEH inhibitor valpromide; format: in vitro ADME
Description: (§2) Human liver microsomes (0.5 mg/mL; mixed gender, ultrapooled, BD Biosciences, catalog number 452117) were incubated at 37±1° C. in 0.2 mL (final volume) of incubation mixtures containing potassium phosphate buffer (100 mM, pH7.4), MgCl2 (3 mM), NADPH (1 mM), atropisomer (1, 10, or 50 μM) and valpromide (0, 50, or 100 μM) (all experiments performed in duplicate). Reactions were initiated by addition of NADPH solution and terminated at predetermined time point (30 min) by addition of stop reagent (300 μL chilled acetonitrile containing 0.1 μM of 7-hydroxycoumarin as an internal standard). After incubation, microsomal proteins were precipitated by centrifugation at 3300×g for 15 min at 4° C. Supernatant fractions were analyzed by LC-MS/MS.
(§3) HPLC mass spectrometer system: An API4000 triple quadrupole mass spectrometer equipped with electrospray ionization ion source was used for quantitation and operated in positive mode. The HPLC system consisted of a CTC Analytics PAL autosampler, an Agilent 1100 series degasser (G1379A), and an Agilent 1100 series binary pump (G1312A). […]
as §1

[3] = Atropisomer interconversion, thermal challenge in aqueous solvent (dilute sodium bicarbonate); format: physicochemical
Description: (§4) The individual atropisomers of Compound (I), atropisomer 1 and atropisomer 2 (elution order from normal-phase chiral chromatography) were exposed to various conditions, including thermal challenge in both organic and aqueous media and exposure to simulated biological conditions, to ascertain whether they readily interconvert.
Atropisomer 1 was dissolved in dilute aqueous sodium bicarbonate solution. Atropisomer 2 was dissolved in dilute aqueous sodium bicarbonate solution. […] Samples of the resulting solutions were exposed to room temperature (rt), 60° C., and 100° C. for four days. After four days, the samples were concentrated to dryness (SpeedVac evaporator—DNA120, property H001630), redissolved in acetonitrile and analyzed by high performance liquid chromatography (AGMS02 Agilent 1100) on a normal phase amylose-based chiral column (ChiralPak IA-3, 3 μm, 100×4.6 mm, column 244), using isocratic elution and UV detection at 226 nm (see example 1). […] Sample chromatograms at t0, 60° C., and 100° C. after four days, are depicted in FIG. 3A, FIG. 3B and FIG. 3C respectively.

[4] = In vitro metabolism, incubations with human liver microsomes; format: in vitro ADME
Description: as §2, with “and the atropisomers” for “atropisomer”, “50” for “50 μM) and valpromide (0, 50, or 100”, “duplicate). Stock solutions of atropisomers were prepared with DMSO at 100 mM. The final concentration of DMSO in the incubation was at or less than 0.05%.” for “duplicate).”
as §3, §1

[5] = Atropisomer interconversion, thermal challenge in organic solvent (acetonitrile); format: physicochemical
Description: as §4
Samples of each separate atropisomers were held at 60° C. for four days and then analyzed by high performance liquid chromatography (AGMS02 Agilent 1100) on a normal phase amylose-based chiral column (ChiralPak IA-3, 3 μm, 100×4.6 mm, column 244), using isocratic elution and UV detection at 226 nm (see example 1).

[6] = Urine PK Parameters (Geometric mean, CI 95%), single oral 400 mg racemic Compound (I)
[7] = plasma, geometric mean, single oral 400 mg racemic Compound (I)

recombinant human CYP2C9, sequence (P11712 whole entry): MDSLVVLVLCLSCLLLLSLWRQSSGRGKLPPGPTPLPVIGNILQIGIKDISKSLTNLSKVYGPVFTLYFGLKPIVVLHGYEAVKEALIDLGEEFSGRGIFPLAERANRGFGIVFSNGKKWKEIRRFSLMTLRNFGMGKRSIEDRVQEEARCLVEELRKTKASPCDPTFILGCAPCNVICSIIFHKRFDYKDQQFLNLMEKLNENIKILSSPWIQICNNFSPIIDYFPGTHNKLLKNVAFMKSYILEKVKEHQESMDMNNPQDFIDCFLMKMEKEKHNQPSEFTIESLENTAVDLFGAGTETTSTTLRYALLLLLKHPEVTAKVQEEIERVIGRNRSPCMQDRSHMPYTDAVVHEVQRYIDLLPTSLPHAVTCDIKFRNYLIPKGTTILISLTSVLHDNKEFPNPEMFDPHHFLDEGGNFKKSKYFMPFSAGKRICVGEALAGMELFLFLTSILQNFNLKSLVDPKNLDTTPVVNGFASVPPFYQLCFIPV

In the case of `O=C(O)CSc1nnc(Br)n1-c1ccc(C2CC2)c2ccccc12` (single isomer, unassigned) [Atropisomer 1, (−)-2-(5-bromo-4-(4-cyclopropylnaphthalen-1-yl)-4H-1,2,4-triazol-3-ylthio)acetic acid], the Ae0-24 [1, 6] is reported as 66.3 mg, the CLR0-24 [1, 6] is reported as 42.6 mL/min and the concentration at 0.5 h ([1]; male, plasma, po, 400 mg, 0.5 hr postdose, single oral 400 mg Compound (I) racemic mixture, adult male subjects) is reported as 65 ng/mL. For the same molecule, the concentration at 1 h ([1]; male, plasma, po, 400 mg, 1 hr postdose, single oral 400 mg Compound (I) racemic mixture, adult male subjects) was 1720 ng/mL, the concentration at 1.5 h ([1]; male, plasma, po, 400 mg, 1.5 hr postdose, single oral 400 mg Compound (I) racemic mixture, adult male subjects) was 3600 ng/mL and the concentration at 2 h ([1]; male, plasma, po, 400 mg, 2 hr postdose, single oral 400 mg Compound (I) racemic mixture, adult male subjects) was 4460 ng/mL. It also gave a concentration at 3 hr ([1]; male, plasma, po, 400 mg, 3 hr postdose, single oral 400 mg Compound (I) racemic mixture, adult male subjects) of 5740 ng/mL, a concentration at 4 hr ([1]; male, plasma, po, 400 mg, 4 hr postdose, single oral 400 mg Compound (I) racemic mixture, adult male subjects) of 4560 ng/mL and a concentration at 5 hr ([1]; male, plasma, po, 400 mg, 5 hr postdose, single oral 400 mg Compound (I) racemic mixture, adult male subjects) of 3430 ng/mL. It also gave a concentration at 6 hr ([1]; male, plasma, po, 400 mg, 6 hr postdose, single oral 400 mg Compound (I) racemic mixture, adult male subjects) of 1960 ng/mL, a concentration at 8 hr ([1]; male, plasma, po, 400 mg, 8 hr postdose, single oral 400 mg Compound (I) racemic mixture, adult male subjects) of 811 ng/mL and a concentration at 10 hr ([1]; male, plasma, po, 400 mg, 10 hr postdose, single oral 400 mg Compound (I) racemic mixture, adult male subjects) of 415 ng/mL. It also gave a concentration at 12 hr ([1]; male, plasma, po, 400 mg, 12 hr postdose, single oral 400 mg Compound (I) racemic mixture, adult male subjects) of 248 ng/mL, a concentration at 24 h ([1]; male, plasma, po, 400 mg, 24 hr postdose, single oral 400 mg Compound (I) racemic mixture, adult male subjects) of 33 ng/mL and an AUC(0-t) ([1]; male, plasma, po, 400 mg, Plasma Concentration (Mean), single oral 400 mg racemic Compound (I), read-out: AUC0-24) of 27100 ng·h/mL. For the same molecule, the Cmax ([1]; male, plasma, po, 400 mg, Plasma Concentration (Mean), single oral 400 mg racemic Compound (I), read-out: Cmax) was 6600 ng/mL, the Cmax ([1]; male, plasma, po, 400 mg, plasma, geometric mean, single oral 400 mg racemic Compound (I), read-out: Cmax: Maximum observed concentration) was 6230 ng/mL and the half-life ([1]; male, plasma, po, 400 mg, plasma, geometric mean, single oral 400 mg racemic Compound (I), read-out: t1/2: Apparent terminal half-life (converted)) was 3.59 h. For the same molecule, the concentration at 0 h ([1]; male, plasma, po, 400 mg, time 0 hr (prior to dosing), single oral 400 mg Compound (I) racemic mixture, adult male subjects) was 0 ng/mL, the Tmax ([1]; male, plasma, po, 400 mg, read-out: Tmax: Time of occurrence of maximum observed concentration) was 3 h and the “AUC0-24: Area under plasma concentration-vs-time curve, from time 0 to 24 hours postdose” value [1, 7] was 25.9 µg·h/mL. The “C24 h: Concentration 24 hours post dose” value [1, 7] was 21.6 ng/mL, the “Formation of M3c, CYP2C9 mediated, atropisomer 1 versus atropisomer 2” value (recombinant human CYP2C9) was “significantly greater” and the “M3c level in the presence of valpromide (mEH inhibitor)” value [2] was “greatly increased”. For the same molecule, the “% Atropisomer 1” value ([3]; 60° C. 4 days) was 99.8%, the “% Atropisomer 2” value ([3]; 60° C. 4 days) was 0.2% and the “% Atropisomer 1” value ([3]; 100° C. 4 days) was 99.6%. The “% Atropisomer 2” value ([3]; 100° C. 4 days) was 0.4%, the “% Atropisomer 1” value ([3]; rt, 4 days) was 99.8% and the “% Atropisomer 2” value ([3]; rt, 4 days) was 0.2%. For the same molecule, the “% Atropisomer 1” value ([3]; t0 (control)) was 99.8%, the “% Atropisomer 2” value ([3]; t0 (control)) was 0.2% and the M3c formation [4] was “predominantly formed”. The “% Atropisomer 1” value ([5]; acetonitrile 0.25 mg/mL, t0) was 99.7%, the “% Atropisomer 2” value ([5]; acetonitrile 0.25 mg/mL, t0) was 0.3% and the “% Atropisomer 1” value ([5]; acetonitrile, 60° C. 4 days) was 99.7%. For the same molecule, the “% Atropisomer 2” value ([5]; acetonitrile, 60° C. 4 days) was 0.3%.

Reference: patent publication US20170319552A1, “ATROPISOMERS OF TRIAZOLE DERIVATIVE” (ARDEA BIOSCIENCES, INC., priority 2016, published 2017)
